Columns and labels:
[1] = test system: carrageenin edema of the rear paw of the rat; test: Retardation of the Carrageenin Edema of the rear paw of the rat; type: in vivo; conditions: for ED25: po, rat, single administration, mean retardation of 25 % 3 and 5 hours after administration; for relative effect (Retardation of the Carrageenin Edema): relative to phenyl butazone (I) = 1.0
Protocol: (§1) The antiinflammatory action of the standard preparation and the compounds of this invention, respectively, was determined
on the retarding inflammation at the carrageenin edema of the rear paw of the rat [Winter et al. Proc. Soc. exp. Biol. Med. 111 (1962) 544], wherein in table 2 those doses are shown which cause a mean retardation of 25 % 3 and 5 hours after single administration of the substance to be tested;

in vivo [2] = conditions: mouse, po
[3] = test system: granulation tissue formation (cotton granuloma) in rats; test: Retardation of the granulation tissue formation (cotton granuloma, chronic inflammation model); type: in vivo, rat; conditions: for ED20: po, 168 h, 7 × p.o., rats, 20% inhibition, cotton granuloma; for relative effect (Retardation of the granulation tissue formation): relative to phenyl butazone (I) = 1.0
Protocol: as §1
on a chronic inflammation model (cotton granuloma) wherein the influence of the compounds on the granulation tissue formation after subcutaneous implantation of cotton plugs in rats was studied after daily administration on 7 following days in taking pattern from the method described by Winter et al. [J. Pharmacol. exp. Therap.

[4] = test system: ultraviolet erythema of the skin on the back of the guinea pig; test: Retardation of the UV-Erythema (skin on the back of the guinea pig); type: in vivo; conditions: for ED25: Cavia porcellus, light or radiation study, po, guinea pig, retardation of 25 % 5 hours after irradiation; for relative effect (Retardation of the UV-Erythema): relative to phenyl butazone (I) = 1,0
Protocol: as §1
on the retardation at the ultraviolet erythema of the skin on the back of the guinea pig [Winder et al. Arch. int. Pharmacodyn. 116 (1958) 261], wherein in table 1 those doses are shown which cause a retardation of 25 % 5 hours after irradiation;

in vivo [5] = conditions: rat, po
rats = conditions: 7 × p.o., 5 % of animals died within 10 days

Structure (SMILES) | ED25 [1] [mg/kg] | relative effect (Retardation of the Carrageenin Edema) [1] | LD50 at 240 h (in vivo [2]) [mg/kg] | selectivity ratio (in vivo [2]) | ED20 [3] [mg/kg/day] | relative effect (Retardation of the granulation tissue formation) [3] | ED25 [4] [mg/kg] | relative effect (Retardation of the UV-Erythema) [4] | selectivity ratio (in vivo [5]) | LD5 (rats) [mg/kg/die]
COc1ccc(-c2nn(-c3ccccc3)c(Cl)c2CC(=O)O)cc1 [IV, 5-chloro-3-p-methoxyphenyl-1-phenyl-pyrazole-4-acetic acid] | 12 | 0.8 | 1100 | 91.7 |  |  |  |  |  | 
CCCCC1C(=O)N(c2ccccc2)N(c2ccccc2)C1=O [I, phenyl butazone, reference compound] | 10 | 1.0 |  |  | 100 | 1.0 | 1 | 1,0 |  | 
O=C(O)Cc1c(-c2ccccc2)nn(-c2ccccc2)c1Cl [III, 5-chloro-1,3-diphenyl-pyrazole-4-acetic acid] | 1 | 10.0 | 1200 | 1200 | 8 | 12.5 | 0.25 | 4.0 | 12.5 | 100
O=C(O)Cc1c(-c2ccc(Cl)cc2)nn(-c2ccccc2)c1Cl [II, 5-chloro-3-p-chlorophenyl-1-phenyl-pyrazole-4-acetic acid] | 1.5 | 6.7 | 530 | 353 | 3 | 33.3 | 0.15 | 6.7 | 6 | 18
